# Measured values: paper PMC8179358, “An explicitly designed paratope of amyloid-β prevents neuronal apoptosis in vitro and hippocampal damage in rat brain” (Chemical Science, 2020)
# *1 amine or outer side, *2 acyl side, *3 side chain or, on linkers, in order; H or OH if unused. Where a SMILES comes first, the peptide text is derived from it. Bridges are numbered along the chain shown (N, C = ends). Roman numbers before positions name the chains, in order. [ ]: non-standard residue; d: D form. X1 = O=C(CCCCC(=O)[*:2])NCCCOCCOCCOCCCNC(=O)CCC(=O)[*:1]; NMeF = CN[C@@H](Cc1ccccc1)C(=O)O; NMeL = CN[C@@H](CC(C)C)C(=O)O; NMeV = CN[C@H](C(=O)O)C(C)C
# Columns and labels:
# Sprague-Dawley rats [1] = assay: Acute and sub-chronic toxicity, mortality, behaviour and body weight; assay type: in vivo
# Description: (§1) 24 male Sprague Dawley rats were randomly divided into three groups: control, SP1A, and SP1B. Each group contains 8 animals and administration of SP1was performed for 42 days through a tail vein by the following schedule: Control: Without any treatment.
# (§2) Rats were sacrificed after 42 days of injection schedule and blood was collected for hematological and biochemical estimations. For the histopathological study, the liver and kidney were also isolated very carefully and checked for cytoarchitectural changes if any.
# (§3) The body weights and volumes of SP1 to be administered were recorded for each animal. Prior to injection, the tail of the animal was warmed by using warm water circulating pad placed under the cage for 5-10 minutes to dilate the veins. A 25-gauge needle was inserted into the vein towards the direction of the head. The needle and syringe were kept parallel to the tail. […]
# µg/kg and 500 µg/kg) was injected into the tail slowly. The needle was removed very carefully and gentle compression applied until bleeding was stopped. Animals were returned to their home cage. […]
# Sprague-Dawley rats [2] = assay: Sub-chronic toxicity, hematological and biochemical parameters; assay type: in vivo; conditions: for Basophil / Total Bilirubin / Creatinine / Eosinophil / Monocyte / RBC / WBC / Serum Urea / SGPT / Lymphocyte / SGOT / Neutrophil / Glucose / ALP: iv, 42 days, n = 8; for Basophil: control 0.00±0.00; for Total Bilirubin: control 0.58±0.04; for Creatinine: control 0.73±0.02; for Eosinophil: control 3.12±0.61; for Monocyte: control 3.20±0.99; for RBC: control 4.77±1.54; for WBC: control 6.60±1.20; for Serum Urea: control 26±1.45; for SGPT: control 38.0±1.70; for Lymphocyte: control 38.2±3.25; for SGOT: control 52.0±2.21; for Neutrophil: control 56.6±2.31; for Glucose: control 103.0±1.34; for ALP: control 111.0±3.46
# Description: The tabulated biochemical profile (novel biomarkers of the liver and kidney) corroborates the safety charms of SP1 for further in vivo studies.
# as §1, §2, §3
# µg/kg and 500 µg/kg) was injected into the tail slowly. The needle was removed very carefully and gentle compression applied until bleeding was stopped. Animals were returned to their home cage.
# The biochemical parameters including blood glucose, serum urea, creatinine, total bilirubin, serum glutamic oxaloacetic transaminase (SGOT), serum glutamic pyruvic transaminase (SGPT), and alkaline phosphatase (ALP) were analyzed for sub-chronic toxicity of SP1by using commercially available diagnostic test kits (Crest Biosystems kits, India). Blood parameters like red blood cells, white blood cells, hemoglobin, neutrophil, lymphocyte, eosinophil, monocyte, and basophil were estimated using standard kits by following the manufacturer’s manual.
# SH-SY5Y cells [3] = assay: MTT assay, Aβ40 induced cytotoxicity; assay type: cell-based, human; conditions: Aβ40 10 μM, 24 h
# Description: 1.3. Methods for in vitro cell-based experiments
# The human neuroblastoma cell line SH-SY5Y was obtained from the National Centre for Cell Science (NCCS, Pune, India). The cells were grown in DMEM, and Ham’s F12 nutrient mixture (DMEM/F12; 1:1) supplemented with 10% fetal bovine serum (FBS; Gibco, USA), 50 U/ml penicillin, 100 μg/ml streptomycin and incubated in a humidified atmosphere of 5% CO2 at 37°C. All experiments were carried […]
# Each experiment was performed
# Methylthiazol tetrazolium (MTT) reduction assay was used to measure the viability of cells.10 The SH-SY5Y cells were seeded at a density of 1.5 × 10^4 cells/well in a 96 well plate. To assess self-toxicity, cells […]
# period 20µl of MTT reagent (5mg/ml in DPBS) was added to each well and incubated in a humidified atmosphere of 5% CO2 at 37°C for 4h. Formazan crystals (purple) are formed by the metabolically active cells by cleaving the yellow tetrazolium salt. After the incubation period, the MTT solution was aspirated, and 150µL of dimethyl sulfoxide (DMSO) was added to each well to dissolve the formazan precipitate.
# SH-SY5Y cells [4] = assay: Intracellular Ca2+ (Fura-2AM); assay type: cell-based, human; conditions: Aβ40 10 μM, compared to untreated cells
# Text: Condensed or fragmented nuclear bodies characterize the distinctive nature of apoptotic cells. […] Dyshomeostasis of Ca^2+ is also responsible for the increased production of Aβ peptides, by which a degenerative feed-forward cycle is activated, resulting in accelerated apoptosis, synaptic dysfunction, and memory impairment.[49] […]
# e. Measurement of intracellular calcium (Ca 2+)
# Ca2+sensitive dye Fura-2AM was used to measure free intracellular Ca2+level in SH-SY5Y cell suspension by the previously described method.12 Following treatment with the respective drug, Fura-2 AM (Cayman, USA) at a concentration of 5 µM was added to the culture medium and incubated at 37°C for 45 min. Next, Krebs-Ringer-HEPES (KRH) buffer (135mM NaCl, 5mM KCl, 1mM MgSO4, 0.4mM KH2PO4, 1mM CaCl2, 5.5mM glucose, 20mM HEPES, pH 7.4) was used to wash each plate twice containing (1×10^6cells). Fluorescent microplate reader (FLX 800, Biotek, USA) was used to measure the fluorescence intensity with an excitation and emission spectra of […], respectively. Results are Mean±SEM of quadruplicate measurements from three separate experiments and expressed in the increase in percent relative fluorescent unit (RFU) relative to the baseline reading.
# Western blot analysis was performed to measure Bax, Bcl-2, cleaved Caspase 9 and cleaved Caspase 3, pro and anti-apoptotic proteins expression. […]
# [5] = SP1 500 µg/kg, *P<0.01 vs control
molecule,measurement,setting,value
CC(C)C[C@H](NC(=O)CNC(=O)CCC(=O)NCCCOCCOCCOCCCNC(=O)CCCCC(=O)NCC(=O)N(C)[C@@H](CC(C)C)C(=O)N[C@H](C(=O)N(C)[C@@H](Cc1ccccc1)C(=O)N[C@@H](Cc1ccccc1)C(=O)N[C@@H](C)C(N)=O)C(C)C)C(=O)N(C)[C@H](C(=O)N[C@@H](Cc1ccccc1)C(=O)N(C)[C@@H](Cc1ccccc1)C(=O)N[C@@H](C)C(N)=O)C(C)C [SP1] (I: GL[NMeV]F[NMeF]A-NH2 / II: G[NMeL]V[NMeF]FA-NH2; linker I:N-II:N via X1),mortality and behavioral patterns,"Sprague-Dawley rats [1]; 100 and 500 μg kg−1, tail vein, 42 days",causes neither mortality nor abnormal behavioral patterns in rats
same,body weight,"Sprague-Dawley rats [1]; 100 and 500 μg kg−1, days 7, 21, and 42, vs control",did not observe any significant changes in the rats' body weight
same,"hematological and biochemical parameters, summary","Sprague-Dawley rats [2]; 100 μg kg−1, 42 days",did not find any severe changes in the hematological and biochemical parameters
same,"hematological and biochemical parameters, summary","Sprague-Dawley rats [2]; 500 μg kg−1, 42 days","Almost similar observations in rats treated with SP1 (500 μg kg^−1) were revealed, except for monocyte and SGOT levels"
same,Basophil,Sprague-Dawley rats [2]; SP1 100 µg/kg,0.00±0.00%
same,Total Bilirubin,Sprague-Dawley rats [2]; SP1 100 µg/kg,0.54 ± 0.09 mg/dL
same,Creatinine,Sprague-Dawley rats [2]; SP1 100 µg/kg,0.69 ± 0.05 mg/dL
same,Eosinophil,Sprague-Dawley rats [2]; SP1 100 µg/kg,2.62±0.82%
same,Monocyte,Sprague-Dawley rats [2]; SP1 100 µg/kg,3.8±1.08%
same,RBC,Sprague-Dawley rats [2]; SP1 100 µg/kg,5.20±1.23 10^6/mm3
same,WBC,Sprague-Dawley rats [2]; SP1 100 µg/kg,5.80±1.34 10^3/mm3
same,Serum Urea,Sprague-Dawley rats [2]; SP1 100 µg/kg,32.0 ± 1.83 mg/dL
same,SGPT,Sprague-Dawley rats [2]; SP1 100 µg/kg,44.0±1.84 IU/L
same,Lymphocyte,Sprague-Dawley rats [2]; SP1 100 µg/kg,42.3±2.92%
same,SGOT,Sprague-Dawley rats [2]; SP1 100 µg/kg,55.0±2.94 IU/L
same,Neutrophil,Sprague-Dawley rats [2]; SP1 100 µg/kg,58.00±2.54%
same,Glucose,Sprague-Dawley rats [2]; SP1 100 µg/kg,110.0 ± 1.36 mg/dL
same,ALP,Sprague-Dawley rats [2]; SP1 100 µg/kg,120.0±3.68 IU/L
same,Basophil,Sprague-Dawley rats [2]; SP1 500 µg/kg,0.00±0.00%
same,Total Bilirubin,Sprague-Dawley rats [2]; SP1 500 µg/kg,0.72 ± 0.06 mg/dL
same,Creatinine,Sprague-Dawley rats [2]; SP1 500 µg/kg,0.86 ± 0.03 mg/dL
same,Eosinophil,Sprague-Dawley rats [2]; SP1 500 µg/kg,2.72±0.53%
same,Monocyte,Sprague-Dawley rats [2]; [5],5.20±1.24%
same,RBC,Sprague-Dawley rats [2]; SP1 500 µg/kg,5.51±1.38 10^6/mm3
same,WBC,Sprague-Dawley rats [2]; SP1 500 µg/kg,6.21±1.15 10^3/mm3
same,Serum Urea,Sprague-Dawley rats [2]; SP1 500 µg/kg,29.0 ± 1.66 mg/dL
same,SGPT,Sprague-Dawley rats [2]; SP1 500 µg/kg,40.32±1.63 IU/L
same,Lymphocyte,Sprague-Dawley rats [2]; SP1 500 µg/kg,40.5±3.12%
same,SGOT,Sprague-Dawley rats [2]; [5],64.2±2.56 IU/L
same,Neutrophil,Sprague-Dawley rats [2]; SP1 500 µg/kg,62.10±2.42%
same,Glucose,Sprague-Dawley rats [2]; SP1 500 µg/kg,105.0 ± 1.28 mg/dL
same,ALP,Sprague-Dawley rats [2]; SP1 500 µg/kg,116.0±2.15 IU/L
Aβ40: commercially available Aβ40 peptide,cell population after Aβ40 alone,SH-SY5Y cells [3],significant reduction in the cell population
same,"intracellular Ca2+ level, Aβ40 alone",SH-SY5Y cells [4],significantly elevated intracellular Ca^2+ levels
